Data from patent US12297223B2, “Compounds” (GLAXOSMITHKLINE INTELLECTUAL PROPERTY DEVELOPMENT LIMITED, priority 2019, dated 2025).

Legend:
FimH = biological target: T1, FimH (Escherichia coli, UniProt Q1R2J4); experiment: Hemagglutination inhibition (HAI) assay with UTI89 bacteria and guinea pig red blood cells; assay type: cell-based; conditions: HAI titer (EC>90): concentration reducing bacterial agglutination of guinea pig red blood cells by greater than 90%; note: ranges in brackets are in nM
T1 construct: endogenous in cells; host or cells: E. coli UTI89 (whole bacteria)
Protocol: “HAI titer or EC>90” is that concentration of the FimH inhibitor/antagonist which reduces the bacterial agglutination of guinea pig red blood cells by greater than 90%.
The activities of the Examples 1-34 compounds above as FimH antagonists/inhibitors were obtained by the following assay(s), and results are provided in Table 1. Results not provided mean that the activities have not yet been tested.
Hemagglutination Inhibition Assay (HAI)
The hemagglutination inhibition (HAI) assay was performed with UTI89 bacteria and guinea pig red blood cells, as previously described (S. J. Hultgren, W. R. Schwan, A. J. Schaeffer, J. L. Duncan Infect. Immun. 1986, 54, 613-620 and Jarvis, C.; Han, Z.; Kalas, V.; Klein, R.; Pinkner, J. S.; Ford, B.; Binkley, J.; Cusumano, C. K.; Cusumano, Z.; Mydock-McGrane, L.; Hultgren, S. J.; Janetka, J. W., Chem Med Chem 2016, 11, 367-373). Values not listed were not tested.

[1] = Rat pharmacokinetics after IV infusion and oral dose (AUC oral, % F, Ue % PO); assay type: in vivo, Male Wistar Han rats; conditions: for DNAUC oral h*uM: PO 5 mg/kg, dose normalized AUC in blood, n = 3; for bioavailability: male, Wistar Han, whole blood; for bioavailability / %F: oral bioavailability, PO 5 mg/kg vs IV infusion 1 mg/kg; for Ue% po: percentage of oral dose eliminated unchanged in urine (or estimate from iv urine fraction times oral bioavailability)
Text: General Assays for Obtaining AUC Oral h*μm, % F, and Ue % PO Values
Male Wistar Han rats were purchased from Vital River Laboratory Animal Technology Co. Ltd (Beijing, China). The animals were approx. 6-8 weeks old with body weights of 200-300 g on the dosing date. The animals were housed in a 12-hour light/12-hour dark cycle environment and had free access to food and water. All animals were fed prior to dosing. Studies were approved by the Pharmaron Institutional Animal Care and Use Committee (IACUC).
Test article was administered as an intravenous infusion for 1 hour (1 mg/kg) at 5 mL/kg/h. After 48 h, animals received a single oral dose (5 mg/kg, free form) at a dose volume of 10 mL/kg, respectively. Blood samples were collected at various time points after IV infusion and PO administrations. Urine samples were collected at various time points after IV infusion and PO administrations (for some compounds).
Test article was dissolved in DMSO with vortexing and sonification to obtain a stock solution. An aliquot of the stock solution was mixed with 10% HP-β-CD in saline with vortexing to obtain a solution with concentration at 0.2 mg/mL of test article.
Test article was added into 1% Methyl Cellulose with vortexing and sonication to obtain a homogeneous suspension with concentration at 0.5 mg/mL of test article.
For IV infusion (1 mg/kg) administration, blood samples were collected from each animal at 0, 0.25, 0.5, 0.75, 1, 1.08, 1.25, 1.5, 1.75, 2, 3, 5, 8, 12, 24 hour post-dose.
For PO (5 mg/kg) administration, blood samples were collected from each animal at 0, 0.25, 0.5, 1, 1.5, 2, 3, 4, 6, 8, 12, 24 hour post-dose.
Blood samples (50 μL) were collected from each animal via jugular vein. These blood samples were placed into tubes containing K2EDTA. Whole blood was mixed with same volume of water and inverted several times. The blood samples were stored at −75±15° C. until analysis.
For IV infusion (1 mg/kg) administration, urine samples were collected from each animal at 0-4, 4-8, 8-12, 12-24 hour post-dose.
For PO (5 mg/kg) administration, urine samples were collected (for some compounds) from each animal at 0-4, 4-8, 8-12, 12-24 hour post-dose.
55 μL of standards, 55 μL of QC samples or 55 μL of unknown samples (50 μL of blood or urine with 5 μL 50% acetonitrile) were mixed to 200 μL of acetonitrile containing IS (dexamethasone) to precipitate proteins. Then the samples were vortexed for 30 sec. After centrifugation at 4° C., 4700 rpm for 30 min, and 5 μL of the supernatant was injected into the LC-MS/MS system for quantitative analysis.
Test article blood and urine concentrations for each animal following IV infusion at 1 mg/kg and PO at 5 mg/kg were used to calculate pharmacokinetic parameters by employing a non-compartmental analysis (Phoenix™ WinNonlin® 7.0). The linear trapezoidal algorithm was used for AUC calculation. • AUC oral h*μM: Area under the curve (AUC) of drug concentration in blood vs. time (units: h*μM) following oral administration • % F: Oral bioavailability (%) derived from the ratio of dose-normalized AUC following PO and IV administration • Ue % PO: Percentage of oral dose eliminated unchanged in urine or an estimater of that parameter generated from using the percentage of the iv dose eliminated in the urine times the oral bioavailability

Compound	HAI (FimH)	DNAUC oral h*uM [1]	bioavailability [1] [%]	Ue% po [1]	%F [1]
Cc1cc(-c2cc(C(F)(F)F)ccn2)ccc1[C@@H](C)[C@H]1O[C@H](CO)[C@@H](O)[C@H](O)[C@@H]1O (single isomer, unassigned) [Example 2]	“+++” (50-200)	“++” (0.5 ≤ x ≤ h · μM)	> 30	“++” (0.5 ≤ x ≤ 5%)	
Cc1cc(-c2cc(F)cc(F)c2)ccc1[C@@H](C)[C@H]1O[C@H](CO)[C@@H](O)[C@H](O)[C@@H]1O (single isomer, unassigned) [Example 28]	“+++” (50-200)				
C#C[C@@H](c1ccc(-c2cc(F)c(Cl)c(F)c2)cc1C)[C@H]1O[C@H](CO)[C@@H](O)[C@H](O)[C@@H]1O (single isomer, unassigned) [Example 34]	“+++” (50-200)				
Cc1cc(-c2cnc(C(F)(F)F)cn2)ccc1[C@@H](C)[C@H]1O[C@H](CO)[C@@H](O)[C@H](O)[C@@H]1O [Example 1, (2R,3S,4R,5S,6R)-2-(Hydroxymethyl)-6-((R)-1-(2-methyl-4-(5-(trifluoromethyl)pyrazin-2-yl)phenyl)ethyl)tetrahydro-2H-pyran-3,4,5-triol]	“++++” (<50)	“++” (0.5 ≤ x ≤ h · μM)	> 30	“+++” (>5%)	
C[C@H](c1ccc(-c2cnc(C(F)(F)F)cn2)cc1C(F)(F)F)[C@H]1O[C@H](CO)[C@@H](O)[C@H](O)[C@@H]1O [Example 3, (2R,3S,4R,5S,6R)-2-(hydroxymethyl)-6-((R)-1-(2-(trifluoromethyl)-4-(5-(trifluoromethyl)pyrazin-2-yl)phenyl)ethyl)tetrahydro-2H-pyran-3,4,5-triol]	“++++” (<50)	“+++” (>1 h · μM)	> 30	“+++” (>5%)	
Cc1cc(-c2cncc(C(F)(F)F)c2)ccc1[C@@H](C)[C@H]1O[C@H](CO)[C@@H](O)[C@H](O)[C@@H]1O [Example 4, (2R,3S,4R,5S,6R)-2-(Hydroxymethyl)-6-((R)-1-(2-methyl-4-(5-(trifluoromethyl)pyridin-3-yl)phenyl)ethyl)tetrahydro-2H-pyran-3,4,5-triol]	“++++” (<50)	“++” (0.5 ≤ x ≤ h · μM)	> 30	“+++” (>5%)	
Cc1cc(-c2cc(F)c(Cl)c(F)c2)ccc1[C@@H](CO)[C@H]1O[C@H](CO)[C@@H](O)[C@H](O)[C@@H]1O [Example 7, (2R,3S,4R,5S,6R)-2-((S)-1-(4′-chloro-3′,5′-difluoro-3-methyl-[1,1′-biphenyl]-4-yl)-2-hydroxyethyl)-6-(hydroxymethyl)tetrahydro-2H-pyran-3,4,5-triol]	“++++” (<50)	“++” (0.5 ≤ x ≤ h · μM)	10 to 30	“++” (0.5 ≤ x ≤ 5%)	
Cc1cc(-c2cc(F)cc(F)c2)ccc1[C@@H](CCO)[C@H]1O[C@H](CO)[C@@H](O)[C@H](O)[C@@H]1O [Example 11]	“+++” (50-200)				
Cc1cc(-c2cc(F)cc(F)c2)ccc1[C@@H](CO)[C@H]1O[C@H](CO)[C@@H](O)[C@H](O)[C@@H]1O [Example 12]	“+++” (50-200)				
C=C[C@H](c1ccc(-c2cc(F)cc(F)c2)cc1C)[C@H]1O[C@H](CO)[C@@H](O)[C@H](O)[C@@H]1O [Example 13]	“++” (201-1000)				
Cc1cc(-c2cc(F)c(Cl)c(F)c2)ccc1[C@@H](CCO)[C@H]1O[C@H](CO)[C@@H](O)[C@H](O)[C@@H]1O [Example 14]	“++++” (<50)	“+” (<0.5 h · μM)			
C=C[C@H](c1ccc(-c2cc(F)c3nccnc3c2)cc1C)[C@H]1O[C@H](CO)[C@@H](O)[C@H](O)[C@@H]1O [Example 15]	“++++” (<50)	“+” (<0.5 h · μM)			
CC[C@H](c1ccc(-c2ccn(C)c(=O)c2)cc1C)[C@H]1O[C@H](CO)[C@@H](O)[C@H](O)[C@@H]1O [Example 16]	“+++” (50-200)	“+” (<0.5 h · μM)			
CC[C@H](c1ccc(-c2cc(F)cc(C#N)c2)cc1C)[C@H]1O[C@H](CO)[C@@H](O)[C@H](O)[C@@H]1O [Example 17]		“+” (<0.5 h · μM)			
C=C[C@H](c1ccc(-c2cnc(C3CC3)cn2)cc1C)[C@H]1O[C@H](CO)[C@@H](O)[C@H](O)[C@@H]1O [Example 19]	“++++” (<50)	“+” (<0.5 h · μM)			
C=C[C@H](c1ccc(-c2cncc(C#N)c2)cc1C)[C@H]1O[C@H](CO)[C@@H](O)[C@H](O)[C@@H]1O [Example 20]	“+++” (50-200)				
CC[C@H](c1ccc(-c2cncc(C#N)c2)cc1C)[C@H]1O[C@H](CO)[C@@H](O)[C@H](O)[C@@H]1O [Example 21]	“+++” (50-200)	“+” (<0.5 h · μM)			
CC[C@H](c1ccc(-c2cnc(C3CC3)cn2)cc1C)[C@H]1O[C@H](CO)[C@@H](O)[C@H](O)[C@@H]1O [Example 22]	“+++” (50-200)				
Cc1cc(-c2ccc(C(F)(F)F)cn2)ccc1[C@@H](C)[C@H]1O[C@H](CO)[C@@H](O)[C@H](O)[C@@H]1O [Example 27]	“+++” (50-200)				
Cc1cc(-c2cncc(C(F)(F)F)n2)ccc1[C@@H](C)[C@H]1O[C@H](CO)[C@@H](O)[C@H](O)[C@@H]1O [Example 29]	“++++” (<50)	“+” (<0.5 h · μM)	10 to 30	“++” (0.5 ≤ x ≤ 5%)	
Cc1cc(-c2cncc(F)c2)ccc1[C@@H](C)[C@H]1O[C@H](CO)[C@@H](O)[C@H](O)[C@@H]1O [Example 30]	“+++” (50-200)				
Cc1cc(-c2ccc(C(F)(F)F)nn2)ccc1C(C)[C@H]1O[C@H](CO)[C@@H](O)[C@H](O)[C@@H]1O (stereo partly drawn) [Example 31]	“++++” (<50)				
C[C@H](c1ccc(-c2cc(C(F)(F)F)ccn2)cc1C(F)(F)F)[C@H]1O[C@H](CO)[C@@H](O)[C@H](O)[C@@H]1O [Example 32]	“+++” (50-200)				
C[C@H](c1ccc(-c2ccc(C(F)(F)F)cn2)cc1C(F)(F)F)[C@H]1O[C@H](CO)[C@@H](O)[C@H](O)[C@@H]1O [Example 33]	“+++” (50-200)				
(2R,3S,4R,5S,6R)-2-(Hydroxymethyl)-6-((R)-1-(2-methyl-4-(5-(trifluoromethyl)pyrazin-2-yl)phenyl)allyl)tetrahydro-2H-pyran-3,4,5-triol [Example 6]	“+++” (50-200)	“+” (<0.5 h · μM)			“++” (10 ≤ x ≤ 30%)
(2R,3S,4R,5S,6R)-2-(Hydroxymethyl)-6-((R)-1-(2-methyl-4-(5-(trifluoromethyl)pyrazin-2-yl)phenyl)propyl)tetrahydro-2H-pyran-3,4,5-triol [Example 5]	“+++” (50-200)	“+” (<0.5 h · μM)		“++” (0.5 ≤ x ≤ 5%)	“++” (10 ≤ x ≤ 30%)
